US10577322B2, “5-methoxytryptophan and its derivatives and uses thereof” (National Health Research Institutes, priority 2015, dated 2020)

Tests used:
[1] = test system: IL-6 promoter; assay: IL-6 promoter-luciferase assay in RAW264.7 cells; type: cell-based, mouse; conditions: LPS 8 h
Experimental: RAW264.7 macrophages were cotransfected with COX-2 promoter-luciferase, IL-6 promoter-luciferase constructs as previously described (Lee, G. L., et al.) or p5xNF-κB-luciferase (Stratagene) and pcDNA3.1-β-galactosidase plasmids using FuGENE 6 (Roche). After overnight transfection, the cells were incubated with or without LPS in the presence or absence of 5-MTP for 8 h. After treatment, cells were lysed, and luciferase activity was measured using an assay kit (Promega). β-galactosidase activity was used to normalize the data.
Moreover, RAW264.7 cells and IL-6 promoter-luciferase plasmid transfected RAW264.7 cells were pretreated with different concentrations of 5-MTP for 30 min, followed by LPS stimulation for 8 h. IL-6 promoter activity was measured by luciferase assay. IL-6 level in culture supernatants was measured by ELISA.

[2] = test system: ERK½; assay: LPS-induced ERK½ phosphorylation in RAW264.7 cells (immunoblot); type: cell-based, mouse; conditions: LPS 4 h
Experimental: (§1) Cellular protein were resolved by 5% to 20% SDS-PAGE and transferred to nitrocellulose membranes and blotted with specific antibodies as previously described (Lee, G. L., et al.).
After pretreating RAW264.7 cells with different concentrations of 5-MTP for 30 min, cells were stimulated with LPS for 4 h. Cell lysates were immunoblotted with antibodies for p38, phospho-p38 (p-p38), ERK½, phospho-ERK½ (p-ERK½) or β-actin. […] Activation of p38 MAPK in macrophages is required for TLR-induced NF-κB activation, which is one of the key factors affecting TLR-induced cytokine production. Thus, we evaluated the effect of 5-MTP on LPS-induced. NF-κB activation.

[3] = test system: atherosclerotic lesions; assay: Lipid accumulation and atherosclerotic lesions in ApoE-deficient mice on high fat diet; type: in vivo; conditions: 23.5 mg/kg 3 times a week i.p., 8 weeks
Experimental: ApoE-deficient mice at 6 weeks were placed on a Western high fat diet containing 1.25% cholesterol and 21% fat (Research. Diets). The mice were simultaneously treated with vehicle (PBS), 5-MTP or 5-MTPE (23.4 mg/kg body weight, 3 times a week) by intraperitoneal injection. After 8 weeks, the aortic trees were dissected and lesions examined in the aortic arch and its branches. The aortas were carefully freed of connective and adipose tissue under a dissection microscope, opened longitudinally and stained with Oil red 0.
Since reduction of serum 5-MTP in CAD patients may be associated with the development of vascular disease, we determined whether exogenous 5-MTP derivatives exert protective effect in the development of atherosclerosis. ApoE-deficient mice were fed a Western high fat diet containing 1.25% cholesterol and 21% fat (Research Diets) starting at 6 weeks of age. The mice were simultaneously treated with vehicle (PBS), 5-MTP or 5-MTPE (23.5 mg/kg body weight, 3 times a week) by intraperitoneal injection. After 8 weeks, the aortic trees were dissected and lesions examined in the aortic arch and its branches.

[4] = test system: LPS-induced endotoxemia; type: in vivo
Experimental: C57BL/6 mice (6-8 wks old) were treated intraperitoneally with saline or with different concentrations of 5-MTP (23.4 or 100 mg/kg) for 30 min before intraperitoneal administration of LPS (60 mg/kg). Animals were monitored for survival and other clinical signs including ruffled fur, lethargy, diarrhea, and body weight loss. Some animals were sacrificed at different times after LPS injection. Blood samples, peritoneal exudates, lungs, and spleens were collected. All mouse experiments were approved by the institutional Animal Care and Use Committee, National Health Research Institutes.
Since suppression of 5-MTP by endotoxemia could contribute to uncontrolled macrophage overproduction of proinflammatory cytokines and mediators, we determined whether exogenous 5-MTP administration rescues mice from LPS-induced systemic inflammation, organ damage and mortality. Mice were injected with saline, 5-MTP (23.4 mg/kg), 5-MTPE (25 mg/kg) or vehicle for 30 min, followed by LPS (60 mg/kg) (saline, n=25; 5-MTP, n=7; 5-MTPE, n=7; LPS, n=30; LPS+5-MTP, n=25; LPS+5-MTPE, n=25). Survival was monitored during the next 72 h. *P<0.001 compared to LPS treatment.

[5] = test system: COX-2; assay: COX-2 immunohistochemistry in lung tissues of LPS-treated mice; type: in vivo; conditions: LPS 60 mg/kg; 12 h, 16 h and 24 h
Experimental: Prior to immunohistochemical detection of COX-2, iNOS, Ly6g, or cleaved caspase-3 in lung sections, sections were deparaffinized with xylene, progressively rehydrated through graded alcohols. Antigen sites were retrieved by heating the sections on slides in pH 8 EDTA antigen. retrieval (Trilogy; Cell Marque Corporation) in electric pressure cooker for 15 min. […] All antibodies described hereafter were diluted in blocking buffer. Sections were incubated at room temperature for 2 h with primary antibody and then washed in PBST. The sections were incubated with primary antibody amplifier quanta (Thermo) for 10 minutes. After rinsing with PBST, the sections were incubated with HRP Polymer Quanto (Thermo) for 10 minutes and washed three times with PBST. COX-2, iNOS, Ly6g and cleaved caspase-3 were visualized by the addition of DAB Quanto Chromogen: Substrate for 3 minutes. Tissues were also counterstained with hematoxylin.
Moreover, paraffin-embedded sections were prepared from lungs of mice injected with 60 mg/kg LPS with or without saline or 5-MTP at 12 h, 16 h and 24 h. COX-2 and inducible nitric oxide synthase (iNOS) protein levels in lung tissues were determined by immunohistochemistry by staining with anti-COX-2 and anti-iNOS antibodies, respectively. The results are shown in FIGS. 6A-6B, in which scale bars represent 100 μm. […]

[6] = test system: p300 HAT; assay: p300 HAT activity in lung tissues of mice; type: in vivo; conditions: 8-24 h after LPS, 5-MTP 23.4 mg/kg
Experimental: In addition, p300 HAT activity in lung tissues of mice (n=6 mice/group) at 8-24 h after LPS infusion with or without 5-MTP(23.4 mg/kg) was determined by an assay kit.

[7] = test system: COX-2; assay: LPS-induced COX-2 protein expression in RAW264.7 cells (immunoblot); type: cell-based, mouse; conditions: LPS 8 h
Experimental: Mouse RAW264.7 macrophages were from the American Type Culture Collection and cultured in DMEM containing 10% FBS. […] The duration of LPS (100 ng/ml) treatment varied depending on the experiment.
as §1
After pretreating mouse macrophage RAW264.7 cells with different concentrations of 5-MTP for 30 min, cells were stimulated with LPS for 8 h. Cell lysates were immunoblotted with antibodies for COX-2 or β-actin. In addition, RAW264.7 cells were transfected with COX-2 promoter-luciferase plasmid. After 24 h transfection, the cells were incubated with LPS for 8 h. Luciferase activity was measured.

[8] = 5-MTP 23.4 mg/kg 30 min before LPS 60 mg/kg

Compound | LPS-induced IL-6 promoter activity [1] | phosphorylation of ERK½ [2] | lipid accumulation in the arteries ([3]; ApoE-deficient mice) | endotoxemic mice died at day 3 [4, 8] [%] | mice died at day 1 [4, 8] | COX-2 expression in lung tissues [5] | p300 HAT activity in lung tissues [6] | LPS-induced COX-2 protein expression [7] | lipid accumulation in atherosclerotic lesions (Oil red O) [3] | protective capacity in LPS-induced lethal endotoxemia ([4]; 5-MTPE 25 mg/kg 30 min before LPS 60 mg/kg, 72 h) [%]
COc1ccc2[nH]cc(C[C@H](N)C(=O)O)c2c1 [5-MTP, 5-methoxytryptophan] | inhibited | but not that of ERK½ | less lipid accumulation | 20 | none | suppresses | suppressed by 5-MTP | blocked | – | –
COC(=O)C(N)Cc1c[nH]c2ccc(OC)cc12 (stereo not shown) [5-MTPE, ester-5-MTP] | – | – | – | – | – | – | – | – | suppressed lipid accumulation | 100
